{
  "source": "patent EP4733301A1",
  "about": "(priority 2023, dated 2025)",
  "assay_type_in_all_cases": "physicochemical",
  "key": {"[1]": {"test": "X-ray-induced release of coumarin reporter 7-Deacca from Compounds 1-9 in phosphate buffer (UPLC-MS)", "conditions": "for release efficiency (in words): NAP esters; for reactivity to radiation reduction: ortho-/para-substituted esters versus meta-substituted ones (Compounds 2, 5, 8); for release efficiency in KNO3 solution relative to control: 10 mM KNO3 added", "protocol": "(§1) Pretreated solution (approx. 1-2 mL) was sealed in glass vials with rubber stoppers and metal caps. All tubular radiation experiments were pretreated using the freeze-thaw method to remove dissolved oxygen from the solution. The solution was frozen, then vacuum was applied for several minutes until thawed to room temperature.\nX-ray irradiation was performed using an X-ray generator (RS2000 Pro 225, 225 kV, 17.7 mA; Rad Source Technologies, Inc).\n(§2) Tubes were irradiated with X-rays, with a total dose of 0-60 Gy, at a rate of 2 Gy/min. Cells were irradiated with X-rays at different doses at a rate of 2 Gy/min.\n• 1. Standard preparation and calibration curves. The standard (coumarin, MeRho or MMAE) was dissolved in DMSO solution to make a 10 mM stock solution. The stock was diluted with deionized water to obtain solutions of suitable concentration gradients. These standard solutions were analyzed by UPLC-MS to generate calibration curves for the respective standard compounds. The peak areas of the target compounds were within the linear range of the curves. The relative standard deviation for duplicate injections of each standard solution was less than 5.0%. • 2. Analysis and calculation. After different treatments, the reaction mixtures were analyzed by ultra-performance liquid chromatography-mass spectrometry. The amount of cargo was calculated as equivalents of their respective external standard.\n(§3) As a representative example, the detailed procedure for X-ray-induced reduction of Compound 1 is described below. A stock solution of Compound 1 (10 mM in DMSO) was diluted in PB (0.02 M, pH 7.4) to a final concentration of 10 µM. Solutions were deoxygenated using the aforementioned deoxygenation step prior to X-ray irradiation from 0 to 60 Gy. Reaction mixtures were analyzed using UPLC and a fluorescence spectrometer, and amount of product release was quantified via standard curves.\nThe elution program for Compounds 1-9 and NAPC-MeRho was Method a: H2O + 5% ACN (0 min)-95% H2O + 5% ACN (0.2 min)-5% H2O + 95% ACN (2.8 min)-5% H2O + 95% ACN (2.9 min)-95% H2O + 5% ACN (3.0 min)-95% H2O + 5% ACN (4.0 min). Injection volume: 10 µL.\n10 mM KNO3 was added to the radiation system of Compound 1 (10 µM, in PB, pH 7.4) Reactivity test (10 µM, 0.1% DMSO): Determination of 7-Deacca release in PB (20 mM, pH 7.4) after deoxygenation and 60 Gy X-ray irradiation. Encouragingly, UPLC-MS detected coumarin release (FIG. 32), with a release efficiency of 33.5 ± 9.1% (FIG. 4), resulting in 55.8 nM/Gy.\n7-Deacca was designed to be protected by a series of molecules Compounds 2-9 with pyridyl, quinolinyl, and N-methylpyridyl groups. Stock solutions of Compounds 2-9 (10 mM in DMSO) were diluted in PB (10 µM, 0.1% DMSO), then irradiated with 60 Gy X-rays, and analyzed by UPLC-MS to determine the yield of free 7-Deacca (FIG. 35).\n10 mM HCOONa or KNO3 was added to the radiation system of Compound 7 (10 µM, in PB, pH 7.4). […] It can be explained that radicalized HCOONa in water reacts with ·OH and hydrogen radicals (·H) to generate carboxylate radicals […], which is another reducing agent with a standard electrode potential of -1.90 V, which may also be a possible explanation for the difference in its radiation reduction efficiency. Compared to the quinolinyl moiety with higher electron density (lower reduction potential), the positive charge on the pyridyl moiety with lower electron density (higher reduction potential) has higher affinity for the negatively charged e^-aq, resulting in the highest radiation reduction efficiency among them for the pyridyl moiety."}, "[2]": {"test": "X-ray-induced AMC release from Compound 10 in PB (UPLC)", "conditions": "10 µM, 0.02 M PB pH 7.4, 0-60 Gy", "protocol": "as §1, §2, §3\n(§4) Method B was used for elution of Compound 10, mixtures of Compound 7 with other RPGs, and mixtures of Compound 10 with other rpg: 95% H2O + 5% ACN (0 min)-95% H2O + 5% ACN (0.2 min)-70% H2O + 30% ACN (3.0 min)-70% H2O + 30% ACN (3.6 min)-95% H2O + 5% ACN (3.7 min)-95% H2O + 5% ACN (5.0 min). Injection volume: 10 µL.\nThe inventors synthesized Compound 10 (NAPC-AMC) containing NAP-protected 7-amino-4-methylcoumarin (AMC). […]"}, "[3]": {"test": "Competition reaction of Compound 10 with prior-art RPGs (Compounds 11, 12, 13) under 60 Gy X-ray", "conditions": "each component 10 µM in PB pH 7.4, deoxygenated, versus Compounds 11, 12, 13", "protocol": "as §4\nThe inventors mixed the reported RPGs with Compound 10, providing solutions of [10+11], [10+12], [10+13], respectively (each component: 10 µM in PB, pH 7.4). The solutions were deoxygenated and irradiated with 60 Gy X-rays, and their release efficiencies were analyzed by UPLC-MS (FIG. 11) and summarized in FIG. 12. The lower part of the bars and the upper part of the bars represent the activation ratio of Compound 10 and each competing component in the irradiation system, respectively."}, "[4]": {"conditions": "10 µM, 20 Gy irradiation (control conditions)"}},
  "data": [
    {"smiles": "CCN(CC)c1ccc2cc(C(=O)OCc3cccc[n+]3C)c(=O)oc2c1", "note": "[Compound 9, (2-((7-(diethylamino)-2-oxo-2H-chromene-3-carbonyl)oxy)methyl)-1-methylpyridin-1-ium]", "values": [
      {"measurement": "release efficiency (in words)", "setting": "[1]; 60 Gy X-ray", "value": "high release efficiencies"},
      {"measurement": "reactivity to radiation reduction", "setting": "[1]; 60 Gy X-ray", "value": "more reactive"}
    ]},
    {"smiles": "CCN(CC)c1ccc2cc(C(=O)OCc3cc[n+](C)cc3)c(=O)oc2c1", "note": "[Compound 7, (4-((7-(diethylamino)-2-oxo-2H-chromene-3-carbonyl)oxy)methyl)-1-methylpyridin-1-ium]", "values": [
      {"measurement": "coumarin release efficiency", "setting": "[1]; 10 µM, 20 Gy + 10 mM HCO2Na", "value": 53.8, "unit": "%"},
      {"measurement": "coumarin release efficiency", "setting": "[1]; 10 µM, 20 Gy + 10 mM KNO3", "value": 0.0, "unit": "%"},
      {"measurement": "coumarin release efficiency", "setting": "[1]; [4]", "value": 27.6, "unit": "%"},
      {"measurement": "reduction yield on addition of HCOONa", "setting": "[1]; 10 mM HCOONa added, 10 µM in PB pH 7.4", "value": "approximately doubled"},
      {"measurement": "release efficiency in KNO3 solution relative to control", "setting": "[1]; 10 µM in PB pH 7.4", "value": "significantly reduced"},
      {"measurement": "release efficiency (in words)", "setting": "[1]; 60 Gy X-ray", "value": "high release efficiencies"},
      {"measurement": "G-value (release of the reporter molecule)", "setting": "[1]; X-ray dose gradient 0 to 60 Gy, UPLC", "value": 140, "unit": "nM/Gy"},
      {"measurement": "reactivity to radiation reduction", "setting": "[1]; 60 Gy X-ray", "value": "more reactive"}
    ]},
    {"smiles": "CCN(CC)c1ccc2cc(C(=O)OCc3ccncc3)c(=O)oc2c1", "note": "[Compound 1, Pyridin-4-ylmethyl-7-(diethylamino)-2-oxo-2H-chromene-3-carboxylate]", "values": [
      {"measurement": "release efficiency (coumarin / 7-Deacca release)", "setting": "[1]; 10 µM, 0.1% DMSO, PB 20 mM pH 7.4, deoxygenated, 60 Gy X-ray", "value": "33.5 ± 9.1", "unit": "%"},
      {"measurement": "coumarin release efficiency", "setting": "[1]; 10 µM, 20 Gy + 10 mM HCO2Na", "value": 27.3, "unit": "%"},
      {"measurement": "coumarin release efficiency", "setting": "[1]; 10 µM, 20 Gy + 10 mM KNO3", "value": 1.3, "unit": "%"},
      {"measurement": "coumarin release efficiency", "setting": "[1]; [4]", "value": 16.7, "unit": "%"},
      {"measurement": "release efficiency in KNO3 solution relative to control", "setting": "[1]; 10 µM in PB pH 7.4", "value": "significantly reduced"},
      {"measurement": "release per radiation dose", "setting": "[1]; from release efficiency at 60 Gy, 10 µM in PB pH 7.4", "value": 55.8, "unit": "nM/Gy"},
      {"measurement": "reactivity to radiation reduction", "setting": "[1]; 60 Gy X-ray", "value": "more reactive"}
    ]},
    {"smiles": "CCN(CC)c1ccc2cc(C(=O)OCc3ccnc4ccccc34)c(=O)oc2c1", "note": "[Compound 4, Quinolin-4-ylmethyl-7-(diethylamino)-2-oxo-2H-chromene-3-carboxylate]", "values": [
      {"measurement": "reactivity to radiation reduction", "setting": "[1]; 60 Gy X-ray", "value": "more reactive"}
    ]},
    {"smiles": "CCN(CC)c1ccc2cc(C(=O)OCc3ccccn3)c(=O)oc2c1", "note": "[Compound 3, Pyridin-2-ylmethyl-7-(diethylamino)-2-oxo-2H-chromene-3-carboxylate]", "values": [
      {"measurement": "reactivity to radiation reduction", "setting": "[1]; 60 Gy X-ray", "value": "more reactive"}
    ]},
    {"smiles": "CCN(CC)c1ccc2cc(C(=O)OCc3ccc4ccccc4n3)c(=O)oc2c1", "note": "[Compound 6, Quinolin-2-ylmethyl-7-(diethylamino)-2-oxo-2H-chromene-3-carboxylate]", "values": [
      {"measurement": "reactivity to radiation reduction", "setting": "[1]; 60 Gy X-ray", "value": "more reactive"}
    ]},
    {"smiles": "Cc1cc(=O)oc2cc(NC(=O)OCc3cc[n+](C)cc3)ccc12", "note": "[Compound 10]", "values": [
      {"measurement": "G (AMC release versus radiation dose)", "setting": "[2]", "value": 145, "unit": "nM/Gy"},
      {"measurement": "additional activation versus previously reported structures in competition", "setting": "[3]", "value": "20-40%"}
    ]}
  ]
}
